# According to patent US6355682B1, “Treatment of acute renal failure by administration of N-acetylcysteine” (priority 2001, dated 2002):
# Test system: patients affected by acute renal failures
# Assay: Clinical case reports: N-acetycysteine given to patients with acute renal failure
# Type: in vivo, human
smiles,measurement,setting,value
"CC(=O)N[C@@H](CS)C(=O)O [N-acetycysteine, N-acetylcysteine]",renal function,"Case No. 1: 10 mg/kg twice daily, over the next several days",returned to normal
same,BUN and Creatinin,"Case No. 1: acute renal failure after cardiogenic shock, 600 mg in a 20% solution every twelve hours, the next day",the rise of BUN and Creatinin stopped
same,need for dialysis,Case No. 1: after N-acetycysteine treatment,Dialysis was no longer required
same,renal function,"Case No. 2: 20 mg/kg every twelve hours, over the next seventy-two hours",returned to normal
same,need for dialysis,Case No. 2: after N-acetycysteine treatment,Dialysis was no longer required
same,BUN and Creatinin,"Case No. 2: hypovolemic shock from acute pancreatitis, 20% solution, 20 mg/kg every twelve hours, values had risen to five times normal",The rise in their BUN and Creatinin stopped
same,urine output,"Case No. 3: 20 mg/kg every twelve hours via nasogastric tube, before treatment less than 100 cc per day",increased to the normal level
same,BUN and Creatinin,"Case No. 3: multi-organ failure after cardiac arrest, 20 mg/kg every twelve hours via nasogastric tube, over the next several days",progressively declined
same,Creatinin clearance,"Case No. 4: 10 mg/kg every twelve hours, two weeks after onset of renal toxicity, 11 ml/minute before treatment, normal for age above 65 ml/min",22 mL/min
same,urine output,"Case No. 4: 10 mg/kg every twelve hours, within several days",returned to normal
same,Bun/Creatinin,"Case No. 4: diabetic patient, acute renal failure under IV Vancomycin and Imipenim, 10 mg/kg every twelve hours, values had risen to five times normal",progressively declined
same,need for dialysis,Case No. 4: two weeks after onset of renal toxicity,dialysis was no longer required
same,potassium level,"Case No. 5: 20 mg/kg every twelve hours, within 24 hours, serum potassium 6.8 before admission",normalized
same,urine volume,"Case No. 5: deterioration of chronic renal failure after Ciprofloxacin, 20 mg/kg every twelve hours, within 24 hours",substantially increased
same,need for hemodialysis,Case No. 5: remained on 600 mg twice daily,no longer required any hemodialysis
